Results as given in US7569578B2, “Heterocyclic anti-migraine agents” (Bristol-Meyers Squibb Company, priority 2003, dated 2009).

molecular target: T1, Human CGRP1 Receptor (Homo sapiens, UniProt O60894+Q16602); experiment: CGRP Binding Assay ([125I]-CGRP radioligand displacement, SK-N-MC membrane homogenate); conditions: [125I]-CGRP displacement, SK-N-MC homogenate, room temperature 2 h; read-out: Human CGRP1 Receptor IC50
T1 construct: endogenous in cells; host or cells: SK-N-MC cells (membrane homogenate)
T1 sequence (Q16602 23-461): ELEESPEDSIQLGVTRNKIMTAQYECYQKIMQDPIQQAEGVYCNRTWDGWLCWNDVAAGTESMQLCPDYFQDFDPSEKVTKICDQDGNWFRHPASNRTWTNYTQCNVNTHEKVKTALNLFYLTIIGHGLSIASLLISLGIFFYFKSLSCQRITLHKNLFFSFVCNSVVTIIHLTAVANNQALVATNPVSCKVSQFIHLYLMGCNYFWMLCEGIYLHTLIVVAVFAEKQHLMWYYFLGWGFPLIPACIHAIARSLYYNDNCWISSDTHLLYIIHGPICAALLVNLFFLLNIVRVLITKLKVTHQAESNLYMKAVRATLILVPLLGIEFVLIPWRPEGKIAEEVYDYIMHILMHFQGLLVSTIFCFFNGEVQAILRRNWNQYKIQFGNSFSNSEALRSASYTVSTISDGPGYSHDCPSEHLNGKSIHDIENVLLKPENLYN
T1 sequence (O60894 27-148): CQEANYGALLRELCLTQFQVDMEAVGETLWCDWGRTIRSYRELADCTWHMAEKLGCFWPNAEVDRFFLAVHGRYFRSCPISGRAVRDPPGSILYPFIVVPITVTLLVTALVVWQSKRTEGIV
Procedure: Tissue Culture. SK-N-MC cells were grown at 37° C. in 5% CO2 as a monolayer in medium consisting of MEM with Earle's salts and L-glutamine (Gibco) supplemented with 10% fetal bovine serum (Gibco).
Cell Pellets. […] The cells were transferred from plates to polypropylene tubes (16×100 mm) and homogenized using a polytron. Homogenates were centrifuged at 32,000×g for 30 min. The pellets were resuspended in cold hypotonic lysis buffer with 0.1% mammalian protease inhibitor cocktail (Sigma) and assayed for protein concentration. The SK-N-MC homogenate was then aliquoted and stored at −80° C. until needed.
Radioligand Binding Assay. The compounds of invention were solubilized and carried through serial dilutions using 100% DMSO. Aliquots from the compound serial dilutions were further diluted 25 fold into assay buffer (50 mM Tris-Cl pH 7.5, 5 mM MgCl2, 0.005% Triton X-100) and transferred (volume 50 μl) into 96 well assay plates. […] SK-N-MC pellets were thawed, diluted in assay buffer with fresh 0.1% mammalian protease inhibitor cocktail (Sigma), and homogenized again. SK-N-MC homogenate (5 μg/well) was added in a volume of 100 μl. The assay plates were then incubated at room temperature for 2 h. Assays were stopped by addition of excess cold wash buffer (20 mM Tris-Cl pH 7.5, 0.1% BSA) immediately followed by filtration over glass fiber filters (Whatman GF/B) previously soaked in 0.5% PEI. Non-specific binding was defined with 1 μM beta-CGRP. Protein bound radioactivity was determined using a gamma or scintillation counter.

Row | IC50 [µM] | Compound
1 | < 0.01 | Cc1cc(CC(CC(=O)N2CCC(N3Cc4ccccc4NC3=O)CC2)c2ccccn2)cc2cn[nH]c12 (racemic) [Example 1, (±)-3-{1-[4-(7-Methyl-1H-indazol-5-yl)-3-pyridin-2-yl-butyryl]-piperidin-4-yl}-3,4-dihydro-1H-quinazolin-2-one]
2 | < 0.01 | Cc1cc(CC(CC(=O)N2CCC(N3Cc4ccccc4NC3=O)CC2)c2nc(Cc3ccccc3)no2)cc2cn[nH]c12 (racemic) [Example 2, (±)-3-{1-[3-(3-Benzyl-[1,2,4]oxadiazol-5-yl)-4-(7-methyl-1H-indazol-5-yl)-butyryl]-piperidin-4-yl}-3,4-dihydro-1H-quinazolin-2-one]
3 | 0.01 to 0.1 | Cc1cc(CC(CC(=O)N2CCC(N3Cc4ccccc4NC3=O)CC2)c2nc(CN3CCCCC3)no2)cc2cn[nH]c12 (racemic) [Example 3, (±)-3-{1-[4-(7-Methyl-1H-indazol-5-yl)-3-(3-piperidin-1-ylmethyl [1,2,4]oxadiazol-5-yl)-butyryl]-piperidin-4-yl}-3,4-dihydro-1H-quinazolin-2-one]
4 | 0.01 to 0.1 | Cc1cc(CC(CC(=O)N2CCC(N3Cc4ccccc4NC3=O)CC2)c2nc(-c3ccccc3)no2)cc2cn[nH]c12 (racemic) [Example 4, (±)-3-{1-[4-(7-Methyl-1H-indazol-5-yl)-3-(3-phenyl-[1,2,4]oxadiazol-5-yl)-butyryl]-piperidin-4-yl}-3,4-dihydro-1H-quinazolin-2-one]
5 | 0.01 to 0.1 | Cc1noc(C(CC(=O)N2CCC(N3Cc4ccccc4NC3=O)CC2)Cc2cc(C)c3[nH]ncc3c2)n1 (racemic) [Example 5, (±)-3-{1-[4-(7-Methyl-1H-indazol-5-yl)-3-(3-methyl-[1,2,4]oxadiazol-5-yl)-butyryl]-piperidin-4-yl}-3,4-dihydro-1H-quinazolin-2-one]
6 | 0.01 to 0.1 | Cc1cc(CC(CC(=O)N2CCC(N3Cc4ccccc4NC3=O)CC2)c2nc(Cc3ccncc3)no2)cc2cn[nH]c12 (racemic) [Example 6, (±)-3-{1-[4-(7-Methyl-1H-indazol-5-yl)-3-(3-pyridin-4-ylmethyl-[1,2,4]oxadiazol-5-yl)-butyryl]-piperidin-4-yl}-3,4-dihydro-1H-quinazolin-2-one]
7 | 0.01 to 0.1 | Cc1cc(CC(CC(=O)N2CCC(N3Cc4ccccc4NC3=O)CC2)c2nc(CN(C)C)no2)cc2cn[nH]c12 (racemic) [Example 7, (±)-3-{1-[3-(3-Dimethylaminomethyl-[1,2,4]oxadiazol-5-yl)-4-(7-methyl-1H-indazol-5-yl)-butyryl]-piperidin-4-yl}-3,4-dihydro-1H-quinazolin-2-one]
8 | 0.01 to 0.1 | Cc1cc(CC(CC(=O)N2CCC3(CC2)OC(=O)Nc2ccccc23)c2nc(Cc3ccccc3)no2)cc2cn[nH]c12 (racemic) [Example 8, (±)-3-{1-[3-(3-Benzyl-[1,2,4]oxadiazol-5-yl)-4-(7-methyl-1H-indazol-5-yl)-butyryl]-4,4′-piperidinyl}-1′,2′-dihydro-2′-oxospiro-[4H-3′,1-benzoxazine]
9 | 0.1 to 1 | Cc1noc(C(CC(=O)N2CCC3(CC2)OC(=O)Nc2ccccc23)Cc2cc(C)c3[nH]ncc3c2)n1 (racemic) [Example 9, (±)-3-{1-[3-(3-Methyl-[1,2,4]oxadiazol-5-yl)-4-(7-methyl-1H-indazol-5-yl)-butyryl]-4,4′-piperidinyl}-1′,2′-dihydro-2′-oxospiro-[4H-3′,1-benzoxazine]
10 | < 0.01 | Cc1cc(CC(NC(=O)N2CCC(N3Cc4ccccc4NC3=O)CC2)c2nc(Cc3ccccc3)no2)cc2cn[nH]c12 (racemic) [Example 10, (±)-4-(2-Oxo-1,4-dihydro-2H-quinazolin-3-yl)-piperidine-1-carboxylic acid [1-(3-benzyl-[1,2,4]oxadiazol-5-yl)-2-(7-methyl-1H-indazol-5-yl)-ethyl]-amide]
11 | 0.01 to 0.1 | Cc1noc(C(Cc2cc(C)c3[nH]ncc3c2)NC(=O)N2CCC(N3Cc4ccccc4NC3=O)CC2)n1 (racemic) [Example 11, (±)-4-(2-Oxo-1,4-dihydro-2H-quinazolin-3-yl)-piperidine-1-carboxylic acid [2-(7-methyl-1H-indazol-5-yl)-1-(3-methyl-[1,2,4]oxadiazol-5-yl)-ethyl]-amide]
12 | 0.01 to 0.1 | Cc1cc(CC(NC(=O)N2CCC(N3Cc4ccccc4NC3=O)CC2)c2nc(Cc3ccncc3)no2)cc2cn[nH]c12 (racemic) [Example 12, (±)-4-(2-Oxo-1,4-dihydro-2H-quinazolin-3-yl)-piperidine-1-carboxylic acid [2-(7-methyl-1H-indazol-5-yl)-1-(3-pyridin-4-ylmethyl-[1,2,4]oxadiazol-5-yl)-ethyl]-amide]
13 | 0.1 to 1 | Cc1cc(CC(NC(=O)N2CCC(N3Cc4ccccc4NC3=O)CC2)c2nc(CN(C)C)no2)cc2cn[nH]c12 (racemic) [Example 13, (±)-4-(2-Oxo-1,4-dihydro-2H-quinazolin-3-yl)-piperidine-1-carboxylic acid [1-(3-dimethylaminomethyl-[1,2,4]oxadiazol-5-yl)-2-(7-methyl-1H-indazol-5-yl)-ethyl]-amide]
14 | 0.1 to 1 | CCc1cc(CC(NC(=O)N2CCC(N3Cc4ccccc4NC3=O)CC2)c2nnn[nH]2)cc2c(C)n[nH]c12 (racemic) [Example 14, (±)-4-(2-Oxo-1,4-dihydro-2H-quinazolin-3-yl)-piperidine-1-carboxylic acid [2-(7-ethyl-3-methyl-1H-indazol-5-yl)-1-(1H-tetrazol-5-yl)-ethyl]-amide]
15 | 0.01 to 0.1 | CCc1cc(CC(NC(=O)N2CCC(N3Cc4ccccc4NC3=O)CC2)c2nnn(CCc3ccccc3)n2)cc2c(C)n[nH]c12 (racemic) [Example 16, (±)-4-(2-Oxo-1,4-dihydro-2H-quinazolin-3-yl)-piperidine-1-carboxylic acid [2-(7-ethyl-3-methyl-1H-indazol-5-yl)-1-(2-phenethyl-2H-tetrazol-5-yl)-ethyl]-amide]
16 | 0.01 to 0.1 | CCc1cc(CC(NC(=O)N2CCC(N3Cc4ccccc4NC3=O)CC2)c2nnnn2C)cc2c(C)n[nH]c12 (racemic) [Example 17, (±)-4-(2-Oxo-1,4-dihydro-2H-quinazolin-3-yl)-piperidine-1-carboxylic acid [2-(7-ethyl-3-methyl-1H-indazol-5-yl)-1-(1-methyl-1H-tetrazol-5-yl)-ethyl]-amide]
17 | 0.01 to 0.1 | CCc1cc(CC(NC(=O)N2CCC(N3Cc4ccccc4NC3=O)CC2)c2nnnn2CC(=O)c2ccccc2)cc2c(C)n[nH]c12 (racemic) [Example 21, (±)-4-(2-Oxo-1,4-dihydro-2H-quinazolin-3-yl)-piperidine-1-carboxylicacid [2-(7-ethyl-3-methyl-1H-indazol-5-yl)-1-[1-(2-oxo-2-phenyl-ethyl)-1H-tetrazol-5-yl)-ethyl]-amide]
18 | 0.01 to 0.1 | CCc1ccnc(C(CC(=O)N2CCC(N3Cc4ccccc4NC3=O)CC2)Cc2cc(C)c3[nH]ncc3c2)c1 (racemic) [Example 22, (±)-3-(1-(3-(4-Ethylpyridin-2-yl)-4-(7-methyl-1H-indazol-5-yl)butanoyl)piperidin-4-yl)-3,4-dihydroquinazolin-2(1H)-one]
19 | 0.01 to 0.1 | Cc1cc(CC(CC(=O)N2CCC(N3Cc4cccc(F)c4NC3=O)CC2)c2ccccn2)cc2cn[nH]c12 (racemic) [Example 23, (±)-8-Fluoro-3-(1-(4-(7-methyl-1H-indazol-5-yl)-3-(pyridin-2-yl)butanoyl)piperidin-4-yl)-3,4-dihydroquinazolin-2(1H)-one]
20 | 0.01 to 0.1 | Cc1cc(CC(CC(=O)N2CCC(c3cc4ccccc4[nH]c3=O)CC2)c2ccccn2)cc2cn[nH]c12 (racemic) [Example 24, (±)-3-(1-(4-(7-Methyl-1H-indazol-5-yl)-3-(pyridin-2-yl)butanoyl)piperidin-4-yl)quinolin-2(1H)-one]
21 | < 0.01 | Cc1cccnc1C(CC(=O)N1CCC(N2Cc3ccccc3NC2=O)CC1)Cc1cc(C)c2[nH]ncc2c1 (racemic) [Example 25, (±)-3-(1-(4-(7-Methyl-1H-indazol-5-yl)-3-(3-methylpyridin-2-yl)butanoyl)piperidin-4-yl)-3,4-dihydroquinazolin-2(1H)-one]
22 | 0.01 to 0.1 | Cc1ccc(C(CC(=O)N2CCC(N3Cc4ccccc4NC3=O)CC2)Cc2cc(C)c3[nH]ncc3c2)nc1 (racemic) [Example 26, (±)-3-(1-(4-(7-Methyl-1H-indazol-5-yl)-3-(5-methylpyridin-2-yl)butanoyl)piperidin-4-yl)-3,4-dihydroquinazolin-2(1H)-one]
23 | < 0.01 | Cc1cc(CC(CC(=O)N2CCC(N3Cc4ccccc4NC3=O)CC2)c2ccc(CO)cn2)cc2cn[nH]c12 (racemic) [Example 27, (±)-3-(1-(3-(5-(Hydroxymethyl)pyridin-2-yl)-4-(7-methyl-1H-indazol-5-yl)butanoyl)piperidin-4-yl)-3,4-dihydroquinazolin-2(1H)-one]

Row | Compound | IC50 [µM]
24 | CCc1cc(CC(NC(=O)N2CCC(N3Cc4ccccc4NC3=O)CC2)c2nnn(CC(=O)c3ccccc3)n2)cc2c(C)n[nH]c12 (racemic) [Example 20, (±)-4-(2-Oxo-1,4-dihydro-2H-quinazolin-3-yl)-piperidine-1-carboxylic acid [2-(7-ethyl-3-methyl-1H-indazol-5-yl)-1-(2-oxo-2Phenethyl-2H-tetrazol-5-yl)-ethyl]-amide] | 0.01 to 0.1
